{"source": "patent US6413736B1", "about": "“Astaxanthin over-producing strains of phaffia rhodozyma, methods for their cultivation, and their use in animal feeds” (Archer-Daniels-Midland Company, priority 1993, dated 2002)", "test_system": "Rainbow trout (Onchorhynchus mykiss, Shasta strain)", "test": "Rainbow trout feeding trial, 84 days: whole or disrupted Phaffia yeast versus synthetic astaxanthin", "assay_type": "in vivo", "conditions": "after 84 days of feeding, FIG. 10, Phaffia versus synthetic astaxanthin", "experimental": "The Phaffia strain was grown in a 2,000 l fermentor in a manner substantially described as above. Cells were concentrated to 15-22% solids by centrifugation and dried. The feed was processed by Zeigler Bros. Inc., […], Pa. The novel Phaffia rhodozma or synthetic astaxanthin (5% Carophyll Pink, Hoffmann-LaRoche) were incorporated into their #1⁄8 Trout Grower pelleted food. Rainbow trout (Onchorhynchus mykiss, Shasta strain) were obtained from a local commercial trout grower. After acclimation to laboratory conditions and an experimental control diet, the trout were moved into separate experimental tanks (28 fish per tank). […] Collectively, the procedures and diets employed in the experiments were designed to result in near-optimal growth of trout at 10 C, the approximate temperature at which most commercially-produced trout are raised. […] The fish were stunned by a blow to the head; total length measured; weight after blotting dry determined; and then each fish was cut across the isthmus severing the ventral aorta. […] The carotenoids were then partitioned into hexanes:ethyl acetate (1:1 by volume) and the total carotenoid and astaxanthin content were determined as described above in the section entitled PIGMENT EXTRACTION AND ASTAXANTHIN ANALYSIS. […] The DMSO extracted carotenoids were then quantified as described above in the section entitled PIGMENT EXTRACTION AND ASTAXANTHIN ANALYSIS. […]"}
{"smiles": "CC1=C(/C=C/C(C)=C/C=C/C(C)=C/C=C/C=C(C)/C=C/C=C(C)/C=C/C2=C(C)C(=O)C(O)CC2(C)C)C(C)(C)CC(O)C1=O", "note": "(stereo not drawn) [synthetic astaxanthin, 3,3′-dihydroxy-β,β-carotene-4,4′-dione]", "values": [{"measurement": "flesh carotenoid content", "result": "the same"}]}
